Test [1] relates to T-Rex 293 cell line SC3 cells having increased expression of androgen receptor protein due to exposure to doxycycline. Briefly: Cellular growth inhibition, T-Rex 293 SC3 cells with doxycycline (increased androgen receptor expression), CellTiter-Glo. It counts as cell-based. The conditions noted are these: T-Rex 293 SC3 cells with 10 ng/mL doxycycline (increased androgen receptor expression), 72 hours, CellTiter-Glo 2.0. The method, then: (§1) The following types of cells were prepared for this experiment: (i) a T-Rex 293 cell line having increased expression of androgen receptor protein due to exposure to doxycycline and (ii) a T-Rex 293 cell line lacking increased expression of androgen receptor protein. Ability of the test compounds to inhibit proliferation of the foregoing cell types was evaluated according to the procedures set forth below.
(§2) The doxycycline-inducible androgen receptor protein expressing cell line was established using the following protocol: T-Rex 293 cells were purchased from Invitrogen (Cat #R71007) and transfected using Lipofectamine 2000 with the wild-type androgen receptor protein sequence cloned into the pcDNA4/TO vector. Transfected cells were selected using 400 μg/mL Zeocin (Invitrogen Cat #R25001). Following selection, single clones were raised and maintained in Dulbecco's Modified Eagle Medium (DMEM) supplemented with 10% w/w Tetracycline-free fetal bovine serum (FBS) and 250 μg/mL Zeocin. Clones were analyzed for expression of androgen receptor protein in the presence and absence of 10 ng/mL doxycycline (Sigma Cat #D9891), and a single doxycycline-inducible clone (hereinafter “SC3”) was selected for use in downstream assays.
(§3) The SC3 cells were seeded on poly-D-lysine coated, black clear-bottom 384-well plates at 2500/well, in 25 μL Phenol Red Free Dulbecco's Modified Eagle Medium (DMEM) supplemented with 10% w/w charcoal-dextran treated fetal bovine serum (FBS) and 1% w/w pen-strep, with or without 10 ng/mL doxycycline. Pen-Strep is a commercially available mixture of penicillin G and streptomycin, which is used in mammalian cell culture media to prevent bacterial contamination. Phenol Red Free Dulbecco's Modified Eagle Medium (DMEM) supplemented with 10% w/w charcoal-dextran treated fetal bovine serum (FBS) and 1% w/w pen-strep, with or without 10 ng/mL doxycycline is herein referred to as Treatment Medium. Following seeding of cells in the plates, the plates were spun at 300×g for 30 seconds, then equilibrated to room temperature for 30 minutes, and then deposited in a humidified tissue culture incubator maintained at 37° C. with 5% CO2.
(§4) At 24 hours after seeding of the cells, dilutions of test compound were prepared in DMSO and dissolved in Treatment Medium, to achieve a final DMSO concentration of 0.5% w/w, thereby providing the Test Compound Solution. A 25 μL aliquot of the Test Compound Solution was added to cells in the well plates. An equal volume of a solution containing DMSO and Treatment Medium was used as a negative control. Following treatment of cells with Test Compound Solution or said equal volume of a solution containing DMSO and Treatment Medium, the plates were spun at 300×g for 30 seconds, and then left in an incubator for 72 hours.
(§5) At the end of the treatment duration, cell viability was quantified with CellTiter-Glo 2.0 reagent (Promega Cat #G9243). For this purpose, plates were equilibrated to room temperature for 30 minutes, and then 25 μL of CellTiter-Glo 2.0 reagent was added to cells in the plate wells. Plates were then agitated on a shaker for two minutes at 500 rpm and subsequently incubated at room temperature for 10 minutes. Following incubation, the plates were spun at 3000×g for 30 seconds, then sealed with an optical adhesive cover, and luminescence readings were measured with an EnVision Plate Reader.
(§6) Data was normalized using zero luminescence for baseline. A four-parameter non-linear regression curve fit was applied to dose-response data in GraphPad Prism data analysis software to determine the half-maximal growth inhibitory concentration (GI50) for each test compound.
(ATP-based viability assays read luminescence as a measure of living cells.)

Test [2] deals with T-Rex 293 cell line SC3 cells lacking increased expression of androgen receptor protein. Briefly: Cellular growth inhibition, T-Rex 293 SC3 cells without doxycycline (no increased androgen receptor expression), CellTiter-Glo. It counts as cell-based. The conditions noted are these: T-Rex 293 SC3 cells not exposed to doxycycline (no increased androgen receptor expression), 72 hours. The method, then: as §1, §2, §3, §4, §5, §6

Test [3] deals with VCaP cells. Kind of test: Cellular growth inhibition assay for VCaP cells, CellTiter-Glo. It counts as cell-based, human. The conditions noted are these: 72 hours. The method, then:
VCaP cells were purchased from American Type Cell Culture (ATCC Cat #CRL2876) and then seeded on poly-D-lysine coated, black clear-bottom 384-well plates at 5000/well in 25 μL Dulbecco's Modified Eagle Medium (DMEM) supplemented with 10% w/w Fetal bovine serum (FBS) and 1% w/w Pen-Strep. Pen-Strep is a commercially available mixture of penicillin G and streptomycin, which is used in mammalian cell culture media to prevent bacterial contamination. Dulbecco's Modified Eagle Medium (DMEM) supplemented with 10% w/w fetal bovine serum (FBS) and 1% w/w Pen-Strep is herein referred to as Treatment Medium. Following seeding of cells in the plates, the plates were spun at 300×g for 30 seconds, then equilibrated to room temperature for 30 minutes, and then deposited in a humidified tissue culture incubator maintained at 37° C. with 5% CO2.
as §4, §5, §6

For orientation: GI50 means the concentration giving 50% growth inhibition. As for `Cn1cc(-c2cc(C(C)(C)O)ccc2Oc2ccc(N3CC4(CCN(c5ncc(C(=O)N[C@H]6C(C)(C)[C@H](Oc7ccc(C#N)c(Cl)c7)C6(C)C)cn5)CC4)C3)cc2)c2cc[nH]c2c1=O` [Compound I-353], the GI50 in test [1] is under 0.5 µM; in test [2] it was 1.5 to 3 µM; in test [3], 1.5 to 3 µM.

`CCS(=O)(=O)Nc1ccc(Oc2cccc(OCCOC3CCN(c4ccc(C(=O)N[C@H]5C(C)(C)[C@H](Oc6ccc(C#N)c(Cl)c6)C5(C)C)cn4)CC3)c2F)c(-c2cn(C)c(=O)c3[nH]ccc23)c1` [Compound I-188]: the GI50 in test [1], in test [2] and in test [3] (Homo sapiens) was under 0.5 µM throughout.

For `CCS(=O)(=O)Nc1ccc(Oc2ccc(OCCOC3CCN(c4ncc(C(=O)N[C@H]5C(C)(C)[C@H](Oc6ccc(C#N)c(Cl)c6)C5(C)C)cn4)CC3)cc2)c(-c2cn(C)c(=O)c3[nH]ccc23)c1` [Compound I-139], the GI50 in test [1], in test [2] and in test [3] was under 0.5 µM each time.

For `CCS(=O)(=O)Nc1ccc(Oc2cccc(CCCCCOC3CCN(c4ncc(C(=O)N[C@H]5C(C)(C)[C@H](Oc6ccc(C#N)c(Cl)c6)C5(C)C)cn4)CC3)c2)c(-c2cn(C)c(=O)c3[nH]ccc23)c1` [Compound I-22], the GI50 in test [1], in test [2] and in test [3] (Homo sapiens) was under 0.5 µM throughout.

Consider `CCS(=O)(=O)c1ccc(OCC(OCCOC2CCN(c3ncc(C(=O)N[C@H]4C(C)(C)[C@H](Oc5ccc(C#N)c(Cl)c5)C4(C)C)cn3)CC2)C2CC2)c(-c2cn(C)c(=O)c3[nH]ccc23)c1` (stereo partly drawn) [Compound I-177], for which the GI50 in test [1], in test [2] and in test [3] was under 0.5 µM in each case.

Turning to `CCS(=O)(=O)Nc1ccc(Oc2cccc(OCCN(C)C3CCN(c4ncc(C(=O)N[C@H]5C(C)(C)[C@H](Oc6ccc(C#N)c(Cl)c6)C5(C)C)cn4)CC3)c2)c(-c2cn(C)c(=O)c3[nH]ccc23)c1` [Compound I-87], the GI50 in test [1], in test [2] and in test [3] (Homo sapiens) was under 0.5 µM in each case.

On to `CCS(=O)(=O)Nc1ccc(Oc2cccc(OCCCCN3CCN(CC4CCN(c5ncc(C(=O)N[C@H]6C(C)(C)[C@H](Oc7ccc(C#N)c(Cl)c7)C6(C)C)cn5)CC4)CC3)c2)c(-c2cn(C)c(=O)c3[nH]ccc23)c1` [Compound I-34], for which the GI50 in test [1], in test [2] and in test [3] (Homo sapiens) was under 0.5 µM throughout.

Turning to `CCS(=O)(=O)Nc1ccc(Oc2cccc(CCCOC3CCN(c4ncc(C(=O)N[C@H]5C(C)(C)[C@H](Oc6ccc(C#N)c(Cl)c6)C5(C)C)cn4)CC3)c2F)c(-c2cn(C)c(=O)c3[nH]ccc23)c1` [Compound I-154], the GI50 in test [1], in test [2] and in test [3] (Homo sapiens) was under 0.5 µM each time.

As to `CCS(=O)(=O)Cc1ccc(Oc2cccc(CCOC3CCN(c4ncc(C(=O)N[C@H]5C(C)(C)[C@H](Oc6ccc(C#N)c(Cl)c6)C5(C)C)cn4)CC3)c2)c(-c2cn(C)c(=O)c3[nH]ccc23)c1` [Compound I-159], the GI50 in test [1], in test [2] and in test [3] was under 0.5 µM in each case.

On to `CCS(=O)(=O)Nc1ccc(Oc2cccc(OCCCOCCCOC3CCN(c4ncc(C(=O)N[C@H]5C(C)(C)[C@H](Oc6ccc(C#N)c(Cl)c6)C5(C)C)cn4)CC3)c2)c(-c2cn(C)c(=O)c3[nH]ccc23)c1` [Compound I-12], for which the GI50 in test [1], in test [2] and in test [3] (Homo sapiens) was under 0.5 µM throughout.

For `CCS(=O)(=O)Cc1ccc(Oc2cccc(OCCOC3CCN(c4ccc(C(=O)N[C@H]5C(C)(C)[C@H](Oc6ccc(C#N)c(Cl)c6)C5(C)C)nn4)CC3)c2F)c(-c2cn(C)c(=O)c3[nH]ccc23)c1` [Compound I-167], the GI50 in test [1] was under 0.5 µM; in test [2], over 3 µM; in test [3] (Homo sapiens), under 0.5 µM.

Take `CCS(=O)(=O)Cc1ccc(Oc2cccc(CCCOC3CCN(c4ncc(C(=O)N[C@H]5C(C)(C)[C@H](Oc6ccc(C#N)c(Cl)c6)C5(C)C)cn4)CC3)c2F)c(-c2cn(C)c(=O)c3[nH]ccc23)c1` [Compound I-184]: the GI50 in test [1], in test [2] and in test [3] (Homo sapiens) was under 0.5 µM in each case.

With `Cn1cc(-c2cc(NS(C)(=O)=O)ccc2Oc2cccc(OCCOC3CCN(c4ncc(C(=O)N[C@H]5C(C)(C)[C@H](Oc6ccc(C#N)c(Cl)c6)C5(C)C)cn4)CC3)c2)c2cc[nH]c2c1=O` [Compound I-50, N-((1r, 3r)-3-(3-chloro-4-cyanophenoxy)-2,2,4,4-tetramethylcyclobutyl)-2-(4-(2-(3-(2-(6-methyl-7-oxo-6,7-dihydro-1H-pyrrolo[2,3-c]pyridin-4-yl)-4-(methylsulfonamido)phenoxy)phenoxy)ethoxy)piperidin-1-yl)pyrimidine-5-carboxamide], the GI50 in test [1], in test [2] and in test [3] (Homo sapiens) was under 0.5 µM in each case.

For `CCS(=O)(=O)Nc1ccc(Oc2cc(OCCOC3CCN(c4ncc(C(=O)N[C@H]5C(C)(C)[C@H](Oc6ccc(C#N)c(Cl)c6)C5(C)C)cn4)CC3)ccn2)c(-c2cn(C)c(=O)c3[nH]ccc23)c1` [Compound I-111], the GI50 in test [1] is under 0.5 µM; in test [2], over 3 µM; in test [3] (Homo sapiens) it was under 0.5 µM.

As to `CCS(=O)(=O)Nc1ccc(Oc2cccc(CCCOC3CCN(c4ncc(C(=O)N[C@H]5C(C)(C)[C@H](Oc6ccc(C#N)c(Cl)c6)C5(C)C)cn4)CC3)c2)c(-c2cn(C)c(=O)c3[nH]ccc23)c1` [Compound I-20], the GI50 in test [1], in test [2] and in test [3] (Homo sapiens) was under 0.5 µM each time.

With `CCS(=O)(=O)Nc1ccc(Oc2cccc(OCCN3CCN(CC4CCN(c5ncc(C(=O)N[C@H]6C(C)(C)[C@H](Oc7ccc(C#N)c(Cl)c7)C6(C)C)cn5)CC4)CC3)c2)c(-c2cn(C)c(=O)c3[nH]ccc23)c1` [Compound I-32], the GI50 in test [1], in test [2] and in test [3] (Homo sapiens) was under 0.5 µM each time.

With `CCS(=O)(=O)Nc1ccc(Oc2cccc(OCCCOCCOC3CCN(c4ncc(C(=O)N[C@H]5C(C)(C)[C@H](Oc6ccc(C#N)c(Cl)c6)C5(C)C)cn4)CC3)c2)c(-c2cn(C)c(=O)c3[nH]ccc23)c1` [Compound I-14], the results for the GI50 in test [1], in test [2] and in test [3] (Homo sapiens) were under 0.5 µM, 0.5 to 1.5 µM and under 0.5 µM, respectively.

As for `CCS(=O)(=O)Nc1ccc(Oc2cccc(OCCCCC3CCN(c4ncc(C(=O)N[C@H]5C(C)(C)[C@H](Oc6ccc(C#N)c(Cl)c6)C5(C)C)cn4)CC3)c2)c(-c2cn(C)c(=O)c3[nH]ccc23)c1` [Compound I-28], the GI50 was under 0.5 µM in test [1], 0.5 to 1.5 µM in test [2] and under 0.5 µM in test [3] (Homo sapiens).

As for `CCS(=O)(=O)c1ccc(Oc2cccc(OCCOC3CCN(c4ccc(C(=O)N[C@H]5C(C)(C)[C@H](Oc6ccc(C#N)c(Cl)c6)C5(C)C)nn4)CC3)c2F)c(-c2cn(C)c(=O)c3[nH]ccc23)c1` [Compound I-169], the GI50 in test [1], in test [2] and in test [3] (Homo sapiens) was under 0.5 µM in each case.

The record behind these values is patent publication US20250388605A1, “HETEROBIFUNCTIONAL COMPOUNDS AND METHODS OF TREATING DISEASE” (Halda Therapeutics OpCo, Inc., priority 2022, published 2025).
